Experimental findings from paper PMC9706486, “INOSITOL (1,3,4) TRIPHOSPHATE 5/6 KINASE1-dependent inositol polyphosphates regulate auxin responses in Arabidopsis” (Plant Physiology, 2022) are described below.

The first experiment concerns the target T1, TIR1–ASK1–IAA7 auxin receptor complex (ASK1–TIR1–Aux/IAA–IAA receptor complex) (Arabidopsis thaliana, UniProt Q570C0).
T1 construct: ASK1–TIR1 co-purified from insect cells; IAA7 ORF as recombinant His8-MBP fusion (pET28-His8-MBP vector); mixed at molar ratio 1:3 (ASK1–TIR1 : IAA7); with SKP1-like protein 1A; Auxin-responsive protein IAA7
T1 sequence (Q570C0 1-594): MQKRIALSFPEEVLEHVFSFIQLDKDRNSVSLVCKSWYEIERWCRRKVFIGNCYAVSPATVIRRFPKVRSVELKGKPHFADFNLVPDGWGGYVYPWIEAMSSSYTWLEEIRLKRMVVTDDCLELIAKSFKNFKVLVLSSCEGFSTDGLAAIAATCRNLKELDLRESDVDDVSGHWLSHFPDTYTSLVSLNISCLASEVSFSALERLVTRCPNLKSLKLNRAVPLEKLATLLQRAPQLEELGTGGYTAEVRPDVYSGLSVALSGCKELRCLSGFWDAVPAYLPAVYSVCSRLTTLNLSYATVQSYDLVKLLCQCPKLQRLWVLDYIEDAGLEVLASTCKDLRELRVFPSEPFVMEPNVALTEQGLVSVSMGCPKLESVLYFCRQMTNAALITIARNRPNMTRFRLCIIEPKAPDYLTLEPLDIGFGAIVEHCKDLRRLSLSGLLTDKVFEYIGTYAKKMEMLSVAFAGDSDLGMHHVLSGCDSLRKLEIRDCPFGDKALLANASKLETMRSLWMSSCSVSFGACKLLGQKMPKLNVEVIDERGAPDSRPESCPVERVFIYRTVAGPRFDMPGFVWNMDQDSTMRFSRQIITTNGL
T1 sequence (Q39255 1-160 partner): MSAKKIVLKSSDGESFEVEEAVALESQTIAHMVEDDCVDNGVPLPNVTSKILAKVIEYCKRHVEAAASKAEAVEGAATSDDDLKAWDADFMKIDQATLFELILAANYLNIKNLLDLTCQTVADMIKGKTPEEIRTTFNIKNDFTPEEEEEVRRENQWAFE
T1 sequence (Q38825 1-243 partner): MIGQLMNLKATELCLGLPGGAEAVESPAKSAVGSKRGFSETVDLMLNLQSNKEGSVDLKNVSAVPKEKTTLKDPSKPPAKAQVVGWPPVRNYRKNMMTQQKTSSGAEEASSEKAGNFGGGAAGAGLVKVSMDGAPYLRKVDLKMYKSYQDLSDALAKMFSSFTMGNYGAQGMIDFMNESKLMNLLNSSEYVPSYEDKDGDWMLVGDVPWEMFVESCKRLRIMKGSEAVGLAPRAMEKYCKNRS
The experiment in a line: competitive radioligand displacement of [3H]-InsP6, Ni-NTA pull-down. The format is binding.
Details: not given
(In general: In a radioligand displacement assay an active substance lowers the binding of a labelled ligand.)
In general, IC50 refers to the concentration at which inhibition is half-maximal. A lower IC50 goes with greater potency in that assay. As to `O=P(O)(O)O[C@H]1[C@H](OP(=O)(O)O)[C@@H](OP(=O)(O)O)[C@H](OP(=O)(O)O)[C@@H](OP(=O)(O)O)[C@H]1OP(=O)(O)O` [InsP6], the IC50 was found to be 19 nM. Same read-out and setting: the same measure for `O=P(O)(O)O[C@@H]1[C@@H](OP(=O)(O)O)[C@H](OP(=O)(O)O)[C@@H](O)[C@@H](OP(=O)(O)O)[C@H]1OP(=O)(O)O` [InsP5 [3-OH]]: 31 nM. On the same count and under the same terms, in the case of `O=P(O)(O)O[C@H]1[C@@H](OP(=O)(O)O)[C@H](OP(=O)(O)O)[C@@H](O)[C@H](OP(=O)(O)O)[C@H]1OP(=O)(O)O` [InsP5 [5-OH]] it was 34 nM; in that of `O=P(O)(O)O[C@H]1[C@@H](OP(=O)(O)O)[C@H](OP(=O)(O)O)[C@@H](OP(=O)(O)OP(=O)(O)O)[C@H](OP(=O)(O)O)[C@H]1OP(=O)(O)O` [5-InsP7], 20 nM.

In turn, `O=P(O)(O)O[C@@H]1[C@@H](OP(=O)(O)O)[C@@H](OP(=O)(O)O)[C@@H](O)[C@H](OP(=O)(O)O)[C@H]1OP(=O)(O)O` [InsP5 [1-OH]] yielded an IC50 of 114 nM.

The next experiment deals with T1, TIR1–ASK1–IAA7 auxin receptor complex (ASK1–TIR1–Aux/IAA–IAA receptor complex). The experiment in a line: auxin-dependent pull-down of ASK1–TIR1 with [3H]-InsP6 by His8-MBP-IAA7. The format is binding. The settings on record: 0.1 uM IAA versus no auxin; pH 7.5, 4 °C; read-out is recovered [3H]-InsP6.
Turning to `O=C(O)Cc1c[nH]c2ccccc12` [IAA], the “auxin-dependent pull-down of ASK1-TIR1 with [3H]-InsP6 by His8-MBP-IAA7” value was “auxin is critical for the interaction between ASK–TIR1 and Aux/IAA protein”.
